{"source": "patent US10293004B2", "about": "“Butyrate-producing bacterium and use thereof” (KABUSHIKI KAISHA YAKULT HONSHA, priority 2014, dated 2019)", "key": {"mouse C57BL/6J": {"tested_on": "mouse C57BL/6J", "assay": "Multiple oral dose test of YIT 12355 to mouse given indigestible saccharide", "format": "in vivo", "settings": "for Total cell count: DAPI counting method; for Cell count, A. hadrus: quantitative PCR; for Occupancy: cell count of YIT 12355/total cell count ×100; for Detected count: mice with A. hadrus detected / mice in group", "method": "Mice were acclimatized and raised with F2 feed (manufactured by Funabashi Farm Co., Ltd.) for 1 week and then divided into 6 groups such that the average body weight was almost equal among these groups. Then, a control diet (Table 7) was administered thereto for 1 week and replaced with purified feed containing an indigestible material, which was then administered thereto for 2 weeks. A live cell suspension of YIT 12355 was orally administered twice a week a total of 4 times using a probe. At the final day of the test, each mouse was dissected, and the cecal and colonic contents were recovered and examined for an organic acid concentration. Also, the cell count of YIT 12355 in the intestinal tract contents was measured by quantitative PCR, while change in the whole intestinal flora was examined by use of PCR-DGGE (denaturing gradient gel electrophoresis). • Animal used: mouse C57BL/6J (4 weeks old; CLEA Japan, Inc.) • Test period: 3 weeks • Indigestible saccharide used: lactitol and maltitol • Dose of indigestible saccharide: 5% (w/w) • Administered bacterial strain: YIT 12355 • Dose of bacterium: live cell dose: 3.9 to 6.9×10^8 cfu/mouse (administration of a suspension in physiological saline using a probe). Total cell count including dead cells: […] cfu/mouse • Group configuration: 6 groups (5 mice/group) At the 2nd week of administration of the test feed, each mouse was anesthetized with diethyl ether and euthanized by cervical dislocation. After abdominal section, cecal tissues and colonic tissues were excised to recover their contents. The cecal and colonic contents were diluted 10-fold with PBS and subjected to DNA extraction. DNA was extracted by the bead-phenol method from the 10-fold diluted solution of the intestinal tract contents. Specifically, 0.3 g of glass beads (diameter: 0.1 mm), 300 μL of a Tris-SDS solution (a mixed solution of 250 mL of 200 mM Tris-HCl, 80 mM EDTA, pH 9.0, and 50 mL of 10% SDS) and 500 μL of TE saturated phenol were added to 200 μL of the diluted solution of the intestinal tract contents, and the mixture was vigorously shaken for 30 seconds using FASTPREP FP120 cell disruptive equipment (power level: 5.0). After centrifugation at 15,000 rpm for 5 minutes, 400 μL of a phenol/chloroform/isoamyl alcohol (25:24:1) solution was added to 400 μL of the supernatant, and the mixture was shaken for 45 seconds using FASTPREP FP120 cell disruptive equipment (power level: 4.0). After centrifugation at 15,000 rpm for 5 minutes, 25 μL of 3 M sodium acetate (pH 5.4) and 250 μL of isopropanol were added to 250 μL of the supernatant and mixed therewith. After centrifugation at 15,000 rpm for 5 minutes, the supernatant was removed, and 500 μL of 70% ethanol was added thereto, followed by centrifugation again at 15,000 rpm for 5 minutes. The supernatant was removed, and the pellets were dried and dissolved in 1.0 mL of a TE buffer. The obtained DNA solution was diluted 10-fold with purified water to prepare a template DNA solution. For quantitative PCR, 7500 Real-Time PCR System (manufactured by Life Technologies Corp.) was used. The total volume of the reaction solution was set to 20 μL, and SYBR Premix Ex Taq II (Takara Bio Inc.) containing 1.0 μM each of primers, and the template DNA solution were mixed and then subjected to quantitative PCR. The reaction conditions involved heating at 95° C. for 2 minutes, followed by 40 repetitive cycles each involving reactions at 95° C. for 20 seconds, 55° C. for 20 seconds and 72° C. for 50 seconds, and subsequent reaction at 72° C. for 3 minutes. For subsequent Tm value analysis, after reaction at 60° C. for 1 minute, the temperature was elevated at a temperature gradient of 0.2° C./sec to 95° C. during which the fluorescence of SYBR Green I was measured to measure the dissociation temperature (Tm) of the double strand of the amplification product. […]"}, "[1]": {"assay": "Evaluation of ability to produce butyrate from indigestible saccharides (Example 3)", "text": "Galactooligosaccharide (GOS), maltitol, D-mannitol, lactitol, isomalt, isomaltulose, L-sorbose and D-sorbitol were used as indigestible saccharides. These indigestible saccharides used, except for GOS, were reagent grade. GOS used was commercially available Oligomate 55N (Yakult Pharmaceutical Industry Co., Ltd.) from which monosaccharide and lactose fractions (fractions digestible and absorbable by the upper gastrointestinal tract) had been removed using an activated carbon column. Specifically, a saccharide solution diluted with purified water was added to a column packed with activated carbon (manufactured by Wako Pure Chemical Industries, Ltd.) swollen in purified water, and the column was washed with a 2% ethanol solution, followed by the elution of an indigestible fraction with a 50% ethanol solution. The eluate was dried under reduced pressure, and the obtained GOS saccharide solution was used.\nA. hadrus YIT 10092^T (DSM 3119^T), which is a type strain of A. hadrus (a typical human intestinal butyrate-producing bacterium), and two isolates were used.\nEach of these bacterial strains was anaerobically cultured at 37° C. for 24 hours in a PYA medium containing 33 mM sodium acetate supplemented with 0.5% D-glucose (PYGA medium). The culture solution was inoculated at 1% to a PYA medium containing 0.5 (w/v) % of each indigestible saccharide (test medium), followed by anaerobic culture at 37° C. for 24 hours. After the completion of the culture, the organic acid concentration in the culture solution was analyzed by ion-exclusion HPLC. The analysis conditions were the same as those described above in Example 2. After the quantification of the organic acid concentration, the amount of butyrate produced from each indigestible saccharide and the ratio of butyrate to total short-chain fatty acids were calculated according to the following expressions. (Amount of butyrate produced)=(Amount of butyrate in the test medium after culture)−(Amount of butyrate in a PYA medium without each indigestible saccharide after culture) (Ratio of butyrate)=(Amount of butyrate in the test medium after culture)/((Amount of acetate+Amount of propionate+Amount of butyrate) in the test medium after culture)×100 (Expression 3)"}}, "data": [{"substance": "A. hadrus (Eubacterium hadrum) YIT 12355 (NITE BP-01832)", "values": [{"measurement": "Total cell count", "setting": "mouse C57BL/6J; Cecal contents", "result": "10.9 ± 0.1", "unit": "log10 cells/g contents"}, {"measurement": "Cell count, A. hadrus", "setting": "mouse C57BL/6J; Cecal contents, multiple oral dose", "result": "7.0 ± 1.1", "unit": "log10 cells/g contents"}, {"measurement": "Occupancy", "setting": "mouse C57BL/6J; Cecal contents", "result": "0.1 ± 0.1", "unit": "%"}, {"measurement": "Detected count", "setting": "mouse C57BL/6J; Cecal contents", "result": "(4/5)"}, {"measurement": "Total cell count", "setting": "mouse C57BL/6J; Colonic contents", "result": "11.0 ± 0.0", "unit": "log10 cells/g contents"}, {"measurement": "Cell count, A. hadrus", "setting": "mouse C57BL/6J; Colonic contents, ND: <lower quantification limit 6.0 log10 (cells/g contents)", "result": "7.2 ± 1.1", "unit": "log10 cells/g contents"}, {"measurement": "Occupancy", "setting": "mouse C57BL/6J; Colonic contents", "result": "0.1 ± 0.1", "unit": "%"}, {"measurement": "Detected count", "setting": "mouse C57BL/6J; Colonic contents", "result": "(4/5)"}, {"measurement": "cell count of A. hadrus in the intestine", "setting": "mouse C57BL/6J; summary in words of Table 10", "result": "largely changes neither"}, {"measurement": "occupancy of A. hadrus in the intestine", "setting": "mouse C57BL/6J; summary in words of Table 10", "result": "largely changes neither"}, {"measurement": "ability to utilize indigestible saccharides", "setting": "[1]; PYA medium with 0.5 (w/v) % of each indigestible saccharide, versus type strain, FIGS. 3 and 4", "result": "more than the type strain YIT 10092^T"}, {"measurement": "Amount of butyrate produced", "setting": "[1]; from indigestible saccharides, versus type strain, FIG. 3", "result": "larger"}, {"measurement": "ratio of butyrate to total short-chain fatty acids", "setting": "[1]; versus type strain YIT 10092^T, FIG. 4", "result": "higher than that of the type strain YIT 10092^T"}]}]}
